Assays:
[1] = Parent ionizable lipid remaining in liver at 24 h after EGFP mRNA LNP (LC-MS); assay type: in vivo; details: 24 h after IV 0.5 mg/kg EGFP mRNA LNP, female BALB/c mice (n = 4)
Method: Liver tissues were treated with PBS and homogenized with a FastPrep machine, 3 cycles of 5 m/s×15 s. Homogenates from the PBS-treated control animals was pooled and used for standard curve preparation. Samples were extracted into a deep well plate with 250 μL of an internal suitability standard. Plates were centrifuged for 15 min at 4° C. and 2000 rpm. Analysis was performed using an Agilent 6520 QTOF coupled to an Agilent 1290 UHPLC, using reverse-phase LC separation. Quantitation of the ionizable lipid was by MS/MS against a calibration curve spiked into appropriately matched blank matrix. Calibration used a similar class of synthetic lipid as internal standard.
At 24 h post-dose, some treatment groups reported lower levels of novel ionizable lipid in mouse liver compared to the benchmark (Tables 28-31).

[2] = Particle characteristics of LNPs containing EGFP mRNA and novel ionizable lipids; assay type: physicochemical; details: EGFP mRNA LNP 1.6:54.6:32.8:10.9
Method: The lipid solution contains 4 components: a PEG-conjugated lipid, an ionizable lipid, cholesterol, and a phospholipid (e.g., DSPC). Lipid stocks were prepared using the lipid identities and molar ratios as described, to achieve a total concentration of ˜7 mg/mL in 100% ethanol. […] Equal volumes of the lipid and nucleic acid solutions were blended at a flow rate of 400 mL/min through a T-connector, and diluted with ˜4 volumes of PBS, pH 7.4. Formulations were placed in Slide-A-Lyzer dialysis units (MWCO 10,000) and dialyzed overnight against 10 mM Tris, 500 mM NaCl, pH 8 buffer. Following dialysis, the formulations were concentrated to ˜0.6 mg/mL using VivaSpin concentrator units (MWCO 100,000) and dialyzed overnight against 5 mM Tris, 10% sucrose, pH 8 buffer. Formulations were filtered through a 0.2 μm syringe filter (PES membrane). Nucleic acid concentration was determined by the RiboGreen assay. Particle size and polydispersity were determined using a Malvern Nano Series Zetasizer.
LNP formulations containing novel ionizable lipids all produced stable particles with high encapsulation efficiency (Tables 20-23).

[3] = test system: EGFP expression in the liver; assay: EGFP expression in liver after intravenous EGFP mRNA LNP (ELISA); details: 0.5 mg/kg IV, 24 h post-IV administration, BALB/c mice (n = 4)
Method: LNP formulations encapsulating enhanced green fluorescent protein mRNA were injected intravenously at 0.5 mg/kg to female BALB/c mice (6-8 weeks old). On day of injection, the LNP stocks were filtered and diluted to the required dosing concentration with phosphate buffered saline. At 24 hours post-administration, animals were anaesthetized with a lethal dosage of ketamine/xylazine. Liver samples (left lateral lobe) were collected, weighed, and flash frozen in liquid nitrogen. Liver samples were stored in FastPrep® tubes at −80° C. until analyzed for EGFP expression.
Liver homogenates were prepared in cell extraction buffer, diluted, and analyzed for EGFP protein levels using ELISA, according to manufacturer's instructions (Abcam, GFP ELISA Kit).

| SMILES | Parent ionizable lipid remaining in liver, Average ([1]; Table 29) [nmol/g liver] | Final Product % EE ([2]; Table 21) [%] | Final Product PDI ([2]; Table 21) | Final Product Z-avg ([2]; Table 21) [nm] | EGFP ([3]; Table 25) [pg/g liver] | Parent ionizable lipid remaining in liver, Average ([1]; Table 30) [nmol/g liver] | Final Product % EE ([2]; Table 22) [%] | Final Product PDI ([2]; Table 22) | Final Product Z-avg ([2]; Table 22) [nm] | EGFP ([3]; Table 26) [pg/g liver] | other results |
| --- | --- | --- | --- | --- | --- | --- | --- | --- | --- | --- | --- |
| CCCCCCCCCCN(C(=O)CCCN(C)C)C(CCCCCCCCC)CCCCCCC(F)(F)C(=O)OC(CCCCCC)CCCCCC (stereo not drawn) [Compound 92, Tridecan-7-yl 9-(N-decyl-4-(dimethylamino)butanamido)-2,2-difluorooctadecanoate] | 8.83 | 99 | 0.09 | 71 | 6.34E+05 | – | – | – | – | – | – |
| CCCCCCCCCCC(CCCCCCCC(=O)OCC(CCCCCC)CCCCCCCC)N(CCCCCCCCCC)C(=O)CCN(C)C (stereo not drawn) [Compound 119, 2-Hexyldecyl 9-(N-decyl-3-(dimethylamino)propanamido)nonadecanoate] | – | – | – | – | – | 25.25 | 97 | 0.09 | 73 | 1.60E+07 | – |
| CCCCCCCCCCC(CCCCCCC(=O)OC(CCCCCC)CCCCCC)N(CCCCCCC(F)(F)C(=O)OC(CCCCCC)CCCCCC)C(=O)CCCN(C)C (stereo not drawn) [Compound 116, Tridecan-7-yl 8-(N-(7,7-difluoro-8-oxo-8-(tridecan-7-yloxy)octyl)-4-(dimethylamino)-butanamido)octadecanoate] | – | – | – | – | – | 60.05 | 98 | 0.09 | 75 | 2.93E+07 | – |
| CCCCCCCCCCC(CCCCCCC(=O)OC(CCCCCCCC)CCCCCCCC)N(CCCCCCC(F)(F)C(=O)OC(CCCCCCCC)CCCCCCCC)C(=O)CCCN(C)C (stereo not drawn) [Compound 118, Heptadecan-9-yl 8-(N-(7,7-difluoro-8-(heptadecan-9-yloxy)-8-oxooctyl)-4-(dimethylamino)butanamido)octadecanoate] | – | – | – | – | – | 62.81 | 98 | 0.06 | 83 | 1.86E+07 | – |
| CCCCCCCCCCC(CCCCCCC(=O)OCCC(CCCCC)CCCCC)N(CCCCCCCCCC)C(=O)CCCCN1CCCC1 (stereo not drawn) [Compound 89, 3-Pentyloctyl 8-(N-decyl-5-(pyrrolidin-1-yl)pentanamido)octadecanoate] | – | – | – | – | – | – | – | – | – | – | Parent ionizable lipid remaining in liver, Average ([1]; Table 28): 4.32 nmol/g liver; Final Product % EE ([2]; Table 20): 99%; Final Product PDI ([2]; Table 20): 0.03; Final Product Z-avg ([2]; Table 20): 83 nm; EGFP ([3]; Table 24): 2.01E+07 pg/g liver |
| CCCCCC/C=C\CCON(C(=O)CCCCN(C)C)C(CCCCCCCCCC)CCCCCCC(=O)OCCC(CCCCC)CCCCC (stereo not drawn) [Compound 94, 3-Pentyloctyl (Z)-8-(N-(dec-3-en-1-yloxy)-5-(dimethylamino)pentanamido)octadecanoate] | 6.57 | 98 | 0.06 | 83 | 1.20E+06 | – | – | – | – | – | – |
| CCCCCCCCCCC(CCCCCCC(=O)OCCC(CCCCCC)CCCCCC)N(CCCCCCCCCC)C(=O)CCCCN1CCCC1 (stereo not drawn) [Compound 90, 3-Hexylnonyl 8-(N-decyl-5-(pyrrolidin-1-yl)pentanamido)octadecanoate] | – | – | – | – | – | – | – | – | – | – | Parent ionizable lipid remaining in liver, Average ([1]; Table 28): 13.37 nmol/g liver; Final Product % EE ([2]; Table 20): 99%; Final Product PDI ([2]; Table 20): 0.07; Final Product Z-avg ([2]; Table 20): 79 nm; EGFP ([3]; Table 24): 2.12E+07 pg/g liver |
| CCCCCC/C=C\CCON(C(=O)CCCCN(C)C)C(CCCCCCCCCC)CCCCCCC(=O)OCCC(CCCCCCC)CCCCCCC (stereo not drawn) [Compound 98, 3-Heptyldecyl (Z)-8-(N-(dec-3-en-1-yloxy)-5-(dimethylamino)pentanamido)octadecanoate] | 30.21 | 99 | 0.06 | 84 | 9.76E+05 | – | – | – | – | – | – |
| CCCCCCCCCCC(CCCCCCC(=O)OCCC(CCCCCCC)CCCCCCC)N(CCCCCCCCCC)C(=O)CCCCN1CCCC1 (stereo not drawn) [Compound 91, 3-Heptyldecyl 8-(N-decyl-5-(pyrrolidin-1-yl)pentanamido)octadecanoate] | – | – | – | – | – | – | – | – | – | – | Parent ionizable lipid remaining in liver, Average ([1]; Table 28): 18.58 nmol/g liver; Final Product % EE ([2]; Table 20): 99%; Final Product PDI ([2]; Table 20): 0.03; Final Product Z-avg ([2]; Table 20): 85 nm; EGFP ([3]; Table 24): 3.15E+07 pg/g liver |
| CCCCCCCCCCON(C(=O)CCCN(C)C)C(CCCCCCCCCC)CCCCCCC(F)(F)C(=O)OC(CCCCCCC)CCCCCCC (stereo not drawn) [Compound 106, Pentadecan-8-yl 9-(N-(decyloxy)-4-(dimethylamino)butanamido)-2,2-difluoro-nonadecanoate] | – | – | – | – | – | 56.97 | 95 | 0.13 | 73 | 2.45E+07 | – |
| CCCCCCCCCCN(C(=O)CCCN(C)C)C(CCCCCCCCC)CCCCC(F)C(=O)OC(CCCCCC)CCCCCC (stereo not drawn) [Compound 121, Tridecan-7-yl 7-(N-decyl-4-(dimethylamino)butanamido)-2-fluorohexadecanoate] | – | – | – | – | – | – | – | – | – | – | Parent ionizable lipid remaining in liver, Average ([1]; Table 31): 2.1 nmol/g liver; Final Product % EE ([2]; Table 23): 99%; Final Product PDI ([2]; Table 23): 0.10; Final Product Z-avg ([2]; Table 23): 77 nm; EGFP ([3]; Table 27): 3.81E+07 pg/g liver |
| CCCCCC/C=C\CCON(C(=O)CCCN(C)C)C(CCCCCCCCCC)CCCCCCC(=O)OCCC(CCCCC)CCCCC (stereo not drawn) [Compound 100, 3-Pentyloctyl (Z)-8-(N-(dec-3-en-1-yloxy)-4-(dimethylamino)butanamido)octadecanoate] | 5.03 | 98 | 0.08 | 72 | 5.98E+05 | – | – | – | – | – | – |
| CCCCCCCCCCON(C(=O)CCCCN(C)C)C(CCCCCCCCCC)CCCCCCC(=O)OCCC(CCCCC)CCCCC (stereo not drawn) [Compound 95, 3-Pentyloctyl 8-(N-(decyloxy)-5-(dimethylamino)pentanamido)octadecanoate] | 9.44 | 96 | 0.08 | 80 | 8.76E+05 | – | – | – | – | – | – |
| CCCCCCCCCCN(C(=O)CCCN(C)C)C(CCCCCCCCC)CCCCCCC(F)(F)C(=O)OC(CCCCCCCC)CCCCCCCC (stereo not drawn) [Compound 104, Heptadecan-9-yl 9-(N-decyl-4-(dimethylamino)butanamido)-2,2-difluorooctadecanoate] | – | – | – | – | – | 51.14 | 99 | 0.07 | 74 | 7.36E+06 | – |
| CCCCCCCCCCN(C(=O)CCCN(C)C)C(CCCCCCCCC)CCCCC(F)(F)C(=O)OC(CCCCC)CCCCC (stereo not drawn) [Compound 108, Undecan-6-yl 7-(N-decyl-4-(dimethylamino)butanamido)-2,2-difluorohexadecanoate] | – | – | – | – | – | 3.86 | 95 | 0.07 | 80 | 5.41E+07 | – |

Source: patent US20250332112A1, “IONIZABLE CATIONIC LIPIDS FOR LIPID NANOPARTICLES” (GENEVANT SCIENCES GMBH, priority 2022, published 2025)
